Test results as given in PubChem BioAssay (NCI).
“And” between values parts separate entries of the source, which are not always exact repeats. Equal values may be shown once.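 Cells were grown in 96-well plates and exposed to each compound for 48 hours at five concentrations; endpoints were interpolated linearly between bracketing concentrations, or set to the highest concentration if not reached. GI50 = concentration required for 50% inhibition of growth. TGI is the concentration that stops growth completely.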

How the values were obtained:
Assay in all cases: NCI anticancer screen, dose series, 48 h
SR leukemia = system: SR leukemia
K-562 leukemia = system: K-562 leukemia
SNB-19 CNS = system: SNB-19 CNS
NCI-H23 lung = system: NCI-H23 lung
SK-MEL-28 melanoma = system: SK-MEL-28 melanoma
CAKI-1 renal = system: CAKI-1 renal
IGROV1 ovarian = system: IGROV1 ovarian
M14 melanoma = system: M14 melanoma
EKVX NSCLC = system: EKVX NSCLC
MDA-MB-435 = system: MDA-MB-435

Compound | TGI (SR leukemia) [µM] | TGI (K-562 leukemia) [µM] | TGI (SNB-19 CNS) [µM] | TGI (NCI-H23 lung) | TGI (SK-MEL-28 melanoma) [µM] | TGI (CAKI-1 renal) [µM] | TGI (IGROV1 ovarian) [µM] | TGI (M14 melanoma) | TGI (EKVX NSCLC) [µM] | TGI (MDA-MB-435) [µM] | GI50 (K-562 leukemia) | GI50 (EKVX NSCLC) | GI50 (NCI-H23 lung) [µM] | GI50 (MDA-MB-435) | GI50 (M14 melanoma) [µM]
COC(=O)C12CC(C3CC31)C1CC12 (configuration not stated) | > 100 | > 100 | > 100 | > 100 µM | > 100 | > 100 | > 100 | > 100 µM |  |  |  |  |  |  | 
CCOC(=O)CCC1(C(=O)OC)CCCC1=O (configuration not stated) |  | > 100 | > 100 | > 100 µM | > 100 |  | > 100 |  | > 100 |  |  |  |  |  | 
c1ccc2c(c1)CCCc1cc3ccccc3nc1-2 |  | > 100 | > 100 | > 100 µM | > 100 | > 100 | > 100 | > 100 µM | > 100 |  |  |  |  |  | 
c1ccc(C2=NN3CN(N2)c2ccccc2OCCCOc2ccccc23)cc1 | > 100 | > 100 | > 100 | > 100 µM | > 100 |  | > 100 | > 100 µM | > 100 |  |  |  |  |  | 
CC1=NN(C(=O)CC(=O)Nc2cccc(Cl)c2)C(=O)C1N=Nc1ccc(S(N)(=O)=O)cc1 (configuration not stated) | > 100 |  | > 100 | > 100 µM | > 100 | > 100 | > 100 | > 100 µM | > 100 |  |  |  |  |  | 
CCCCN(CCCC)C(=NCc1ccccc1)NC#N |  | 28.3 | 54.2 | 58.5 µM |  | 43.9 | 59.2 | 52.1 µM | 73.5 |  |  |  |  |  | 
CC(=O)Oc1ccc2cc(Oc3ccc(Cl)cc3)c(=O)oc2c1 | > 100 |  | > 100 | > 100 µM | > 100 | > 100 | > 100 | > 100 µM | > 100 |  |  |  |  |  | 
C/C(=N\N(C)C)C(CN(C)C)C(c1ccccc1)c1c(O)c2ccccc2oc1=O (configuration not stated) |  | > 100 | > 100 | > 100 µM | > 100 |  | > 100 | > 100 µM | > 100 |  |  |  |  |  | 
Cc1cnc(Cl)nc1C(C#N)c1nc2ccccc2n1C (configuration not stated) |  |  | > 100 | > 100 µM | > 100 | > 100 | > 100 | > 100 µM | 57.1 | > 100 |  |  |  |  | 
O=c1[nH]c(=O)n(C2CC(O)C(CO)O2)cc1C#Cc1ccc(C(F)(F)F)cc1 (configuration not stated) | > 100 | > 100 | > 100 | > 100 µM | > 100 |  | > 100 | > 100 µM | > 100 |  |  |  |  |  | 
COc1cc2c3c(n(CCCNCCO)c(=O)c2cc1OC)-c1cc2c(cc1C3=O)OCO2 |  | > 100 | > 100 | 0.171 µM and 0.493 µM |  |  | 2.38 | 0.573 µM and 0.679 µM | 1.22 |  | 2.16 µM and 0.511 µM | 0.257 µM and 0.557 µM | 0.0437 | 0.528 µM and 1.34 µM | 0.0575
O=C(Cn1c2ccc(Br)cc2c2nc3ccccc3nc21)NC1CCCCC1 |  | > 100 | > 100 | > 100 µM | > 100 | > 100 | > 100 | > 100 µM |  | > 100 |  |  |  |  | 
Cc1ccc(S(=O)(=O)C(C#N)c2nc3ccccc3nc2-n2cccn2)cc1 (configuration not stated) |  | > 100 | > 100 | > 100 µM | > 100 |  | > 100 | > 100 µM | > 100 |  |  |  |  |  | 
Brc1ccc2c(c1)C1(c3cc(Br)ccc3-2)c2cc(Br)ccc2-c2ccc(Br)cc21 | > 100 | > 100 | > 100 | > 100 µM | > 100 | > 100 | > 100 | > 100 µM | > 100 |  |  |  |  |  | 
NC1=NS(=O)(=O)N=C(N)C1=Cc1ccc([N+](=O)[O-])o1 | 29.2 | 19.5 | > 100 | 31.4 µM | 29.5 |  | 32.1 | 26.9 µM | 32.5 |  |  |  |  |  | 
Cc1nc2c(n1Cc1ccc(Cl)cc1)C(=O)c1ccccc1C2=O | > 75 | > 75 | > 75 | > 75 µM | > 75 |  | > 75 | > 75 µM | > 75 |  |  |  |  |  | 
COc1cc(C2SCC(=O)N2NC(=O)c2ccc(NC(C)=O)cc2)cc(OC)c1OC (configuration not stated) |  | > 100 | > 100 | > 100 µM | > 100 |  | > 100 | > 100 µM | > 100 | > 100 |  |  |  |  | 
Oc1ccc(-c2c3c(nc4c2CCc2ccc(Br)cc2-4)-c2cc(Br)ccc2CC3)cc1 |  |  | 46.9 | 38.7 µM | 38.9 | 33 | 30.7 | 55.1 µM | 46.1 | 45 |  |  |  |  | 
CC1(C)CC(=O)C(/C=N/c2nc(-c3ccc(Br)cc3)cs2)=C(O)C1 |  |  | > 100 | 83.9 µM | > 100 | 63.3 | > 100 | 48.4 µM | > 100 | 76.5 |  |  |  |  | 
CC(C)(CN1CCCCC1)C(=O)CC(SCCS(=O)(=O)O)c1ccc(Br)cc1 (configuration not stated) |  | 8.63 | 5.44 | 5.9 µM | 8.7 | 7.2 | 4.56 | 3.54 µM | 6.51 |  |  |  |  |  | 
O=C(c1cccs1)N(C(=S)N1CCN(c2ccccc2)CC1)c1ccccc1 | > 100 | > 100 | > 100 | > 100 µM | > 100 | > 100 | > 100 | > 100 µM |  |  |  |  |  |  | 
